We go through 2 molecules from US5763406A, “Method for the treatment of conditions caused by herpes virus infections” (Carlbiotech, Ltd. A/S, priority 1991, dated 1998).

Series [1] can be described thus: Systemic or local effects reported by treated patients. It is filed as in vivo, human.
For another series, the system named is HSV-1 infection. Put plainly: Patients' earlier aciclovir treatment of HSV-1 outbreaks (case history). The series is classed as in vivo, human. As to the method:
The patient had experienced similar lesions during the past 18 years, primarily during the winter months. They would usually experience 3-5 outbreaks each winter lasting 10-14 days before complete resolution. One year ago, they applied aciclovir topical to the lesions and on that occasion, resolution occured in 6-8 days.
When the lesions are treated with a 5% aciclovir ointment, topically, resolution is normally achieved within 6-7 days. […] On this occasion, […] denied any recent use of any topical or systemic therapy.
The patient had experienced outbreaks from HSV-1 […]. Five years ago the patient started to use aciclovir topically on a regular basis, but switched to take aciclovir orally 11/2 years ago. Normally the outbreaks would be on the lips, but occasionally the outbreaks would also appear on the neck and on the buccal mucosa. Without any form of medication, complete resolution would happen within 2-3 weeks and complete resolution by using aciclovir orally would happen within 1-2 weeks.

Turning to `C[C@@H](N)C(=O)N[C@@H](CO)C(=O)N[C@H](C(=O)N[C@H](C(=O)N[C@H](C(=O)N[C@@H](CC(N)=O)C(=O)N[C@@H](Cc1ccc(O)cc1)C(=O)N[C@H](C(N)=O)[C@@H](C)O)[C@@H](C)O)[C@@H](C)O)[C@@H](C)O` [(D-Ala^1)-Peptide-T Amide, D-Ala-Ser-Thr-Thr-Thr-Asn-Tyr-Thr-NH2], the “systemic or local effects” value in series [1] (Example 1, 10 mg/ml topical three times daily) is on record as “did not report any systemic or local effects other than those noted above”; in series [1] (Example 4, 10 mg/ml topical four times in 36 hours), “did not experience any systemic or local effects other than those noted above”; in series [1] (Example 5, 10 mg/ml topical two times daily), “did not observe any systemic or local effects other than those noted above”.

For `Nc1nc2c(ncn2COCCO)c(=O)[nH]1` [aciclovir], the time to resolution lay within 6 to 8 days in the series on HSV-1 infection (Example 1 patient, aciclovir topical one year ago) and 6 to 7 days with HSV-1 infection (Example 2 patient, 5% aciclovir ointment, topically). Moreover, in the series with HSV-1 infection (Example 2 patient, aciclovir), the “effect of very early treatment of the lesions” value was “has not been able to stop the vesicles developing into painful ulcers although the ulcers tend to decrease in size”. The “effect from the use of aciclovir” value in the series on HSV-1 infection (Example 4 patient) was “never experienced any effect”. In addition, the “time to complete resolution” value in the series on HSV-1 infection (Example 5 patient, aciclovir orally) is 1-2 weeks.
